According to PubChem BioAssay (NCI):
Where “and” joins values, the source holds several entries; their conditions need not be identical. Identical values can stand only once.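 Compound exposure: 48 hours, 5 concentrations, 96-well plates. GI50 is the concentration that inhibits growth by half. TGI marks complete inhibition of growth.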

Assays:
Experiment in all cases: DTP human tumour cell line panel, 48 h
[1] = system: SF-295 CNS
[2] = system: PC-3 prostate
[3] = system: NCI-H460 lung
[4] = system: SK-OV-3 ovarian
[5] = system: OVCAR-3 ovarian
[6] = system: EKVX NSCLC
[7] = system: SN12C renal
[8] = system: RXF 393 renal
[9] = system: SW-620 colon
[10] = system: OVCAR-8 ovarian

Structure (SMILES)	TGI [1]	TGI [2]	TGI [3]	TGI [4]	TGI [5]	TGI [6]	TGI [7]	TGI [8]	TGI [9]	TGI [10]	GI50 [1]	GI50 [2]	GI50 [3]	GI50 [4]	GI50 [5]	GI50 [6]	GI50 [7]	GI50 [8]	GI50 [9]	GI50 [10]
C=C1C(=O)O[C@@H]2C(=O)[C@@H](C)[C@@H]3C=CC(=O)[C@@]3(C)[C@@H](OC(=O)/C(C)=C\C)[C@H]12	27.4 µM	6.04 µM	6.05 µM	26.9 µM	3.67 µM	2.53 µM	2.85 µM	1.47 µM	1.76 µM	12 µM	–	–	–	–	–	–	–	–	–	–
Cc1n[nH]c(=S)n1/N=C/c1ccc(F)c(Oc2ccccc2)c1	> 100 µM	> 100 µM	> 100 µM	> 100 µM	> 100 µM	99.4 µM	> 100 µM	> 100 µM	> 100 µM	> 100 µM	57.8 µM	79.6 µM	39 µM	> 100 µM	44.6 µM	32.8 µM	95.6 µM	> 100 µM	36.5 µM	35.7 µM
CCN(CC)CCOc1ccc(/C(=C(\C)Cc2ccc(OC)cc2)c2ccc(OC(=O)NCc3ccccc3)cc2)cc1	3.3 µM	3.88 µM	3.37 µM	18.7 µM	3.47 µM	11.5 µM	3.21 µM	3.08 µM	3.59 µM	5.69 µM	1.75 µM	1.94 µM	1.84 µM	5.11 µM	1.85 µM	2.63 µM	1.73 µM	1.65 µM	1.91 µM	2.38 µM
Cc1cc(O)c(C(c2cccnc2)c2c(O)cc(C)[nH]c2=O)c(=O)[nH]1	> 100 µM	> 100 µM	> 100 µM	> 100 µM	> 100 µM	> 100 µM	> 100 µM	> 100 µM	–	> 100 µM	–	–	–	–	–	–	–	–	–	–
CN1CCC[C@@H]1CCO[C@](C)(c1ccccc1)c1ccc(Cl)cc1	6.43 µM	17 µM	17.1 µM	17.8 µM	20.8 µM	25.2 µM	18.7 µM	13.9 µM	18.8 µM	24.7 µM	2.32 µM	4.58 µM	4.94 µM	4.46 µM	7.96 µM	10.9 µM	4.54 µM	3.48 µM	5.5 µM	10.8 µM
CCOC(=O)c1c(C)nc2ccc(Cl)cc2c1-c1ccccc1	46.8 µM	65.9 µM	45.2 µM	45.6 µM	43.1 µM	88.2 µM	32.7 µM	47.4 µM	47 µM	> 100 µM	19.4 µM	20 µM	20.2 µM	19.1 µM	19 µM	25.6 µM	16.8 µM	17.3 µM	19.2 µM	26.7 µM
CCOC(=O)c1ccc(N(CCOS(C)(=O)=O)CCOS(C)(=O)=O)cc1C	> 100 µM	> 100 µM	> 100 µM	> 100 µM	44 µM	> 100 µM	> 100 µM	33.3 µM	> 100 µM	> 100 µM	21.9 µM	30.4 µM	27.8 µM	33.6 µM	18.8 µM	29.5 µM	24.7 µM	17.8 µM	88.2 µM	44 µM
O=C(Nc1nccs1)c1cc2c(cc1Cl)Sc1nccn1S2(=O)=O	34.5 µM	33.4 µM	29.5 µM	63.9 µM	28.3 µM	44.7 µM	32.6 µM	39.7 µM	42 µM	37.1 µM	18.3 µM	16.8 µM	–	24.5 µM	15 µM	20.6 µM	16.8 µM	18.9 µM	16.8 µM	17.2 µM
Cn1cccc1-c1cc(-c2cccs2)[nH]c(=O)c1C#N	> 100 µM	> 100 µM	> 100 µM	> 100 µM	> 100 µM	> 100 µM	> 100 µM	> 100 µM	> 100 µM	> 100 µM	> 100 µM	> 100 µM	69.6 µM	> 100 µM	> 100 µM	52.3 µM	> 100 µM	> 100 µM	> 100 µM	> 100 µM
O=C1/C(=C\C(Cl)=C/c2ccc([N+](=O)[O-])cc2)SC(=S)N1CCc1ccc(O)cc1	1.06 µM	0.845 µM	4.05 µM	6.42 µM	1.43 µM	2.21 µM	1.38 µM	1.11 µM	1.26 µM	4.2 µM	0.501 µM	0.269 µM	1.82 µM	2.59 µM	0.4 µM	0.94 µM	0.33 µM	0.472 µM	0.324 µM	0.414 µM
Cc1cccc2c(N=Nc3ccc(S(N)(=O)=O)cc3)c(O)[nH]c12	> 25 µM	> 25 µM	> 25 µM	> 25 µM	> 25 µM	> 25 µM	> 25 µM	> 25 µM	> 25 µM	> 25 µM	> 25 µM	> 25 µM	> 25 µM	> 25 µM	> 25 µM	> 25 µM	> 25 µM	> 25 µM	> 25 µM	> 25 µM
Cc1c2c(nn1C(=O)c1nn(-c3ccc(Cl)cc3)cc1O)-c1ccccc1CC2	0.0548 µM	> 100 µM	0.0613 µM	> 100 µM	1.55 µM	> 100 µM	> 100 µM	> 42.8 µM	> 100 µM	> 100 µM	0.0119 µM	0.0373 µM	0.0237 µM	0.202 µM	0.185 µM	0.0707 µM	0.0403 µM	0.0441 µM	0.289 µM	0.0523 µM
O=C1C(=O)c2ccccc2-c2ccccc21	3.23 µM	2.79 µM	3.99 µM	3.25 µM	3.2 µM	3.25 µM	3.29 µM	3.12 µM	4.78 µM	2.15 µM	1.76 µM	1.31 µM	1.92 µM	1.73 µM	1.72 µM	1.81 µM	1.61 µM	1.72 µM	2.06 µM	0.662 µM
CN[C@]12CC3(C=CC(=O)C=C3)O[C@@]1(Cc1ccc(OC)cc1)N(C)C(=O)N2	13.6 µM	4.31 µM	13.7 µM	44.2 µM	4.14 µM	19.1 µM	7.13 µM	3.6 µM	6.99 µM	21.3 µM	3.74 µM	0.695 µM	3.44 µM	5.12 µM	0.793 µM	4.23 µM	1.7 µM	1.82 µM	2.1 µM	2.53 µM
Cc1ccc(S(=O)(=O)/N=c2\ssc(Nc3ccccc3)c2Cl)cc1	12.4 µM	18.4 µM	19.6 µM	> 50 µM	20.2 µM	16.9 µM	25.6 µM	46.1 µM	–	> 50 µM	1.15 µM	6.95 µM	9.02 µM	15.3 µM	6.08 µM	6.03 µM	8.99 µM	13.6 µM	–	16.5 µM
CC(=O)O[C@H]1C(=O)O[C@@H]2C[C@H]3C(C)=CC(=O)[C@@H](O)[C@]3(C)[C@H]3[C@@]4(O)OC[C@]32[C@@H]1[C@@H](C)[C@H]4O	0.291 µM and 0.206 µM	0.137 µM	0.187 µM	4.04 µM and 3.35 µM	0.172 µM and 0.12 µM	1.12 µM and 0.219 µM	–	0.503 µM and 0.108 µM	0.445 µM and 0.653 µM	1.55 µM and 0.218 µM	0.034 µM	–	0.0136 µM and 0.0427 µM	0.237 µM	0.0134 µM	0.159 µM	0.0304 µM	0.0481 µM	0.033 µM	0.0266 µM
c1cc(OCCN2CCCCCC2)ccc1CNc1ccc2nc(CCC3CCCCC3)[nH]c2c1	3.82 µM	4.84 µM	4.64 µM	4.84 µM	4.25 µM	9.58 µM	4.57 µM	4.4 µM	4 µM	6.34 µM	1.94 µM	1.94 µM	2.06 µM	2.18 µM	1.89 µM	2.49 µM	1.64 µM	1.53 µM	1.87 µM	2.27 µM
O=C(O)c1ccc2c(c1Nc1ccccc1)C(=O)c1ccccc1C2=O	> 100 µM	> 100 µM	> 100 µM	> 100 µM	> 100 µM	> 100 µM	> 100 µM	> 100 µM	> 100 µM	> 100 µM	20.3 µM	54.1 µM	27.3 µM	34.2 µM	20.7 µM	19.9 µM	50.3 µM	26.3 µM	44.1 µM	72.6 µM
O=C1N=C(c2ccccc2)OC1C(=O)c1ccccc1 (centres undefined)	> 100 µM	> 100 µM	> 100 µM	> 100 µM	> 100 µM	> 100 µM	> 100 µM	> 100 µM	> 100 µM	> 100 µM	–	–	–	–	–	–	–	–	–	–
NC(CNO)C(=O)O (centres undefined)	> 100 µM	> 100 µM	> 100 µM	> 100 µM	> 100 µM	> 100 µM	> 100 µM	> 100 µM	> 100 µM	> 100 µM	–	–	–	–	–	–	–	–	–	–
COc1ccc(N(CC(=O)NCCC[Te]c2ccccc2)C(=O)CCSC2=C(C)C(=O)c3ccccc3C2=O)cc1	0.704 µM	2.91 µM	0.948 µM	4.67 µM	3.19 µM	2.98 µM	3.77 µM	4.47 µM	8.03 µM	6.06 µM	0.232 µM	0.656 µM	0.31 µM	2.14 µM	1.44 µM	0.326 µM	0.84 µM	2.07 µM	2.41 µM	0.722 µM
COc1cc(/C=C/C(=O)c2ccc(Nc3ncnc4ccccc34)cc2)cc(OC)c1	29.2 µM	31.6 µM	> 100 µM	10.7 µM	13.5 µM	> 100 µM	38 µM	9.32 µM	9.68 µM	17.1 µM	4.31 µM	3.36 µM	14.2 µM	3.6 µM	4 µM	51.9 µM	7.3 µM	2.11 µM	2.38 µM	3.68 µM
S=c1nc2[nH]ncc2c(N/N=C/c2ccccc2)[nH]1	> 100 µM	> 100 µM	> 100 µM	> 100 µM	> 100 µM	> 100 µM	> 100 µM	> 100 µM	> 100 µM	> 100 µM	> 100 µM	> 100 µM	93.6 µM	> 100 µM	48.5 µM	> 100 µM	> 100 µM	> 100 µM	> 100 µM	> 100 µM
C=C1C(=O)O[C@H]2[C@H]1CC/C(Cn1cc(Cn3ccc4ccccc43)nn1)=C\CC[C@@]1(C)O[C@@H]21	21.3 µM	2.98 µM	19.7 µM	30.1 µM	3.01 µM	4.22 µM	3.46 µM	2.82 µM	3.01 µM	8.22 µM	7.87 µM	1.47 µM	5.66 µM	16 µM	1.62 µM	1.86 µM	1.65 µM	1.41 µM	1.42 µM	2.73 µM
Cc1cc(C)c(O)c(Cc2cccc(Cc3cc(C)cc(C)c3O)c2O)c1	> 100 µM	> 100 µM	> 100 µM	> 100 µM	> 100 µM	> 100 µM	> 100 µM	> 100 µM	> 100 µM	> 100 µM	–	–	–	–	–	–	–	–	–	–
Cn1ncc2c(/N=C/c3cccs3)[nH]c(=S)nc21	> 83.3 µM	> 100 µM	> 100 µM	> 100 µM	> 76.7 µM	99.8 µM	> 69.2 µM	> 73.3 µM	> 100 µM	> 100 µM	41.1 µM	40.7 µM	31 µM	80 µM	29.2 µM	41.1 µM	> 36 µM	26.2 µM	31.5 µM	57.5 µM
O=C(Nc1n[nH]c2nc(-c3ccco3)ccc12)C1CC1	> 25 µM	> 25 µM	> 25 µM	> 25 µM	> 25 µM	> 25 µM	> 25 µM	> 25 µM	> 25 µM	> 25 µM	> 25 µM	> 25 µM	> 25 µM	> 25 µM	> 25 µM	> 25 µM	> 25 µM	> 25 µM	> 25 µM	> 25 µM
